Assay results as given in US20240165097A1, “PHARMACEUTICAL COMPOSITION FOR THE TREATMENT OF ALZHEIMER'S DISEASE OR DEMENTIA” (Heptares Therapeutics Limited, priority 2021, published 2024).
Where two headings read alike, the source gives them in different places.

Assay: Example C: HTL0018318 plasma and urine pharmacokinetics
Type: in vivo, human
Settings: for CL renal / Cmax / AUC / AUC(0-inf) / half-life / Tmax: human, oral; for Cmax / AUC / AUC(0-inf) / half-life / Tmax: plasma; for AUC: Tau = 24 hrs, read-out: AUC0-tau (mean); for AUC(0-inf): read-out: AUC0-inf (mean)
Procedure: On the days between, only pre-dose PK samples were taken. The last PK blood sample was taken between 7-14 days after the last HTL0018318 dose (Table 7).
For these calculations, data of 15 mg and 25 mg HTL0018318 were grouped together. […]
All PK analyses were performed in Phoenix 64 build 6.4.0.768 using WinNonlin 6.4. Statistical analysis was performed in R version 3.3.1 (2016-06-21) Copyright (C) 2016 The R Foundation for Statistical Computing (Platform: x86_64-w64-mingw32/x64 64-bit).

[1] = fifth dose, 15 and 25 mg grouped
[2] = first dose, 15 and 25 mg grouped

Q: For `CCOC(=O)N1C2CCC1CC(N1CCC3(CC1)CNC(=O)C3)C2` (stereo not drawn) [HTL0018318, ethyl 3-(3-oxo-2,8-diazaspiro[4.5]dec-8-yl)-8-azabicyclo[3.2.1]octane-8-carboxylate], which “Ae (mean)” value (15 mg + DPZ, 1st dose) is on record?
A: The value was 39.9%.

Q: What about the “CL/F (mean)” value (15 mg + DPZ, 1st dose) of the same molecule?
A: The value was 14.7 L/h.

Q: And the “Ae (mean)” value (15 mg + DPZ, 5th dose)?
A: The value was 51.5%.

Q: What about the “CL/F (mean)” value (15 mg + DPZ, 5th dose) of the same molecule?
A: Its value is 14.0 L/h.

Q: What about the “mean ratio AUC0-tau fifth dose / AUC0-inf first dose” value (15 mg alone) of the same molecule?
A: The value was 1.04.

Q: What about the “mean ratio AUC0-tau fifth dose / AUC0-tau first dose” value (15 mg alone) of the same molecule?
A: The value was 1.27.

Q: What about the “Ae (mean)” value (15 mg only, 1st dose) of the same molecule?
A: Its value is 39.2%.

Q: What about the “CL/F (mean)” value (15 mg only, 1st dose) of the same molecule?
A: Its value is 14.2 L/h.

Q: What about the “Ae (mean)” value (15 mg only, 5th dose) of the same molecule?
A: Its value is 47.9%.

Q: And the “CL/F (mean)” value (15 mg only, 5th dose)?
A: Its value is 14.0 L/h.

Q: And the “mean ratio AUC0-tau fifth dose / AUC0-inf first dose” value (15 mg, donepezil co-dosed)?
A: Its value is 1.04.

Q: What about the “mean ratio AUC0-tau fifth dose / AUC0-tau first dose” value (15 mg, donepezil co-dosed) of the same molecule?
A: Its value is 1.23.

Q: What about the “Ae (mean)” value (25 mg + DPZ, 1st dose) of the same molecule?
A: The value was 41.1%.

Q: What about the “CL/F (mean)” value (25 mg + DPZ, 1st dose) of the same molecule?
A: The value was 17.0 L/h.

Q: And the “Ae (mean)” value (25 mg + DPZ, 5th dose)?
A: The value was 47.7%.

Q: What about the “CL/F (mean)” value (25 mg + DPZ, 5th dose) of the same molecule?
A: The value was 16.0 L/h.

Q: What about the “mean ratio AUC0-tau fifth dose / AUC0-inf first dose” value (25 mg alone) of the same molecule?
A: Its value is 1.06.

Q: And the “mean ratio AUC0-tau fifth dose / AUC0-tau first dose” value (25 mg alone)?
A: The value was 1.23.

Q: What about the “Ae (mean)” value (25 mg only, 1st dose) of the same molecule?
A: Its value is 32.6%.

Q: What about the “CL/F (mean)” value (25 mg only, 1st dose) of the same molecule?
A: Its value is 17.6 L/h.

Q: What about the “Ae (mean)” value (25 mg only, 5th dose) of the same molecule?
A: Its value is 44.1%.

Q: And the “CL/F (mean)” value (25 mg only, 5th dose)?
A: The value was 16.6 L/h.

Q: What about the “mean ratio AUC0-tau fifth dose / AUC0-inf first dose” value (25 mg, donepezil co-dosed) of the same molecule?
A: Its value is 1.03.

Q: And the “mean ratio AUC0-tau fifth dose / AUC0-tau first dose” value (25 mg, donepezil co-dosed)?
A: Its value is 1.21.

Q: What about the pharmacokinetic steady-state reached (daily dosing 15 or 25 mg) of the same molecule?
A: The pharmacokinetic steady-state reached was “on or before the fifth daily dose”.

Q: What about the “ratio of AUC0-tau, in combination with donepezil vs alone” value [1] of the same molecule?
A: Its value is 1.00.

Q: And the “ratio of Cmax, in combination with donepezil vs alone” value [1]?
A: Its value is 1.04.

Q: What about the “ratio of Cmin, in combination with donepezil vs alone” value [1] of the same molecule?
A: The value was 0.911.

Q: What about the “ratio of Tmax, in combination with donepezil vs alone” value [1] of the same molecule?
A: Its value is 0.974.

Q: And the “ratio of AUC0-24, in combination with donepezil vs alone” value [2]?
A: Its value is 1.02.

Q: What about the “ratio of Cmax, in combination with donepezil vs alone” value [2] of the same molecule?
A: The value was 1.05.

Q: And the “ratio of Tmax, in combination with donepezil vs alone” value [2]?
A: Its value is 1.01.

Q: What about the CL renal (plasma and urine, 25 mg + DPZ, 1st dose) of the same molecule?
A: Its CL renal is 129 mL/min.

Q: What about the CL renal (plasma and urine, 25 mg + DPZ, 5th dose) of the same molecule?
A: The CL renal was 113 mL/min.

Q: And the CL renal (plasma and urine, 25 mg, 25 mg only, 1st dose)?
A: The CL renal was 104 mL/min.

Q: What about the CL renal (plasma and urine, 25 mg, 25 mg only, 5th dose) of the same molecule?
A: The CL renal was 109 mL/min.

Q: And the Cmax (15 mg + DPZ, 1st dose)?
A: Its Cmax is 91.2 ng/mL.

Q: And the AUC (15 mg + DPZ, 1st dose)?
A: The AUC was 932 ng·h/mL.

Q: What about the AUC(0-inf) (15 mg + DPZ, 1st dose) of the same molecule?
A: The AUC(0-inf) was 1120 ng·h/mL.

Q: What about the half-life (15 mg + DPZ, 1st dose, read-out: Half-life (mean) (converted)) of the same molecule?
A: Its half-life is 8.97 h.

Q: What about the Tmax (15 mg + DPZ, 1st dose, read-out: Tmax (median)) of the same molecule?
A: The Tmax was 2.5 h.

Q: And the Cmax (15 mg + DPZ, 5th dose)?
A: Its Cmax is 109 ng/mL.

Q: What about the AUC (15 mg + DPZ, 5th dose) of the same molecule?
A: The AUC was 1150 ng·h/mL.

Q: And the half-life (15 mg + DPZ, 5th dose, read-out: Half-life (mean) (converted))?
A: Its half-life is 11.6 h.

Q: What about the Tmax (15 mg + DPZ, 5th dose, read-out: Tmax (median)) of the same molecule?
A: Its Tmax is 1.74 h.

Q: And the Cmax (15 mg, 15 mg only, 1st dose)?
A: Its Cmax is 83.4 ng/mL.

Q: What about the AUC (15 mg, 15 mg only, 1st dose) of the same molecule?
A: Its AUC is 919 ng·h/mL.

Q: And the AUC(0-inf) (15 mg, 15 mg only, 1st dose)?
A: The AUC(0-inf) was 1130 ng·h/mL.

Q: What about the half-life (15 mg, 15 mg only, 1st dose, read-out: Half-life (mean) (converted)) of the same molecule?
A: Its half-life is 9.25 h.

Q: And the Tmax (15 mg, 15 mg only, 1st dose, read-out: Tmax (median))?
A: The Tmax was 2 h.

Q: And the Cmax (15 mg, 15 mg only, 5th dose)?
A: Its Cmax is 103 ng/mL.

Q: What about the AUC (15 mg, 15 mg only, 5th dose) of the same molecule?
A: The AUC was 1180 ng·h/mL.

Q: And the half-life (15 mg, 15 mg only, 5th dose, read-out: Half-life (mean) (converted))?
A: The half-life was 13.8 h.

Q: And the Tmax (15 mg, 15 mg only, 5th dose, read-out: Tmax (median))?
A: The Tmax was 2.05 h.

Q: And the Cmax (25 mg + DPZ, 1st dose)?
A: The Cmax was 139 ng/mL.

Q: And the AUC (25 mg + DPZ, 1st dose)?
A: Its AUC is 1410 ng·h/mL.

Q: What about the AUC(0-inf) (25 mg + DPZ, 1st dose) of the same molecule?
A: The AUC(0-inf) was 1710 ng·h/mL.

Q: What about the half-life (25 mg + DPZ, 1st dose, read-out: Half-life (mean) (converted)) of the same molecule?
A: Its half-life is 8.73 h.

Q: What about the Tmax (25 mg + DPZ, 1st dose, read-out: Tmax (median)) of the same molecule?
A: The Tmax was 1.76 h.

Q: What about the Cmax (25 mg + DPZ, 5th dose) of the same molecule?
A: The Cmax was 171 ng/mL.

Q: What about the AUC (25 mg + DPZ, 5th dose) of the same molecule?
A: The AUC was 1740 ng·h/mL.

Q: What about the half-life (25 mg + DPZ, 5th dose, read-out: Half-life (mean) (converted)) of the same molecule?
A: The half-life was 10.7 h.

Q: And the Tmax (25 mg + DPZ, 5th dose, read-out: Tmax (median))?
A: The Tmax was 2 h.

Q: And the Cmax (25 mg, 25 mg only, 1st dose)?
A: Its Cmax is 135 ng/mL.

Q: What about the AUC (25 mg, 25 mg only, 1st dose) of the same molecule?
A: Its AUC is 1370 ng·h/mL.

Q: What about the AUC(0-inf) (25 mg, 25 mg only, 1st dose) of the same molecule?
A: The AUC(0-inf) was 1650 ng·h/mL.

Q: And the half-life (25 mg, 25 mg only, 1st dose, read-out: Half-life (mean) (converted))?
A: Its half-life is 8.52 h.

Q: What about the Tmax (25 mg, 25 mg only, 1st dose, read-out: Tmax (median)) of the same molecule?
A: The Tmax was 1.75 h.

Q: What about the Cmax (25 mg, 25 mg only, 5th dose) of the same molecule?
A: The Cmax was 162 ng/mL.

Q: What about the AUC (25 mg, 25 mg only, 5th dose) of the same molecule?
A: The AUC was 1710 ng·h/mL.

Q: What about the half-life (25 mg, 25 mg only, 5th dose, read-out: Half-life (mean) (converted)) of the same molecule?
A: Its half-life is 13.4 h.

Q: What about the Tmax (25 mg, 25 mg only, 5th dose, read-out: Tmax (median)) of the same molecule?
A: Its Tmax is 1.76 h.

Q: What about the Tmax (25 mg, 15 and 25 mg, with and without donepezil, read-out: Tmax, range over groups) of the same molecule?
A: The Tmax was 1.74 to 2.5 h.

Q: What about the half-life (25 mg, 15 and 25 mg, with and without donepezil, read-out: half-life following the fifth dose, range over groups) of the same molecule?
A: Its half-life is 10.7 to 13.8 h.

Q: And the CL renal (urine and plasma, 15 mg + DPZ, 1st dose)?
A: Its CL renal is 109 mL/min.

Q: And the CL renal (urine and plasma, 15 mg + DPZ, 5th dose)?
A: Its CL renal is 109 mL/min.

Q: What about the CL renal (urine and plasma, 15 mg, 15 mg only, 1st dose) of the same molecule?
A: Its CL renal is 109 mL/min.

Q: And the CL renal (urine and plasma, 15 mg, 15 mg only, 5th dose)?
A: Its CL renal is 104 mL/min.
